According to PubChem BioAssay (NCI):
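All cell lines were grown in 96-well plates and treated with compound for 48 hours. GI50 is the concentration that inhibits growth by half. TGI denotes the concentration required for complete inhibition of growth.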

Experiments:
Test in all cases: NCI anticancer screen, dose series, 48 h
[1] = tested on: ACHN renal
[2] = tested on: COLO 205 colon
[3] = tested on: DU-145 prostate
[4] = tested on: HL-60(TB) leukemia
[5] = tested on: HT29 colon
[6] = tested on: OVCAR-4 ovarian
[7] = tested on: OVCAR-5 ovarian
[8] = tested on: UACC-62 melanoma

Row | SMILES | GI50 [1] | TGI [1] | GI50 [2] | TGI [2] | GI50 [3] | TGI [3] | GI50 [4] | TGI [4] | GI50 [5] | TGI [5] | GI50 [6] | TGI [6] | GI50 [7] | TGI [7] | GI50 [8] | TGI [8]
1 | O=C1COCCN1c1ccc(NCc2cn(C(=O)c3ccc(Cl)cc3)c3ccccc23)cc1 | 3.79 µM | 27.5 µM | 3.28 µM | 21.8 µM | 8.76 µM | > 100 µM | 4.97 µM | 20.9 µM | 3.79 µM | > 100 µM | 0.494 µM | 18.8 µM | 0.187 µM | 0.622 µM | 0.396 µM | 3.37 µM
2 | CC(=O)n1c(-c2ccc(Cl)c(Cl)c2)cn(-c2ccc(Cl)cc2)c1=O | 27.8 µM | > 100 µM | 53 µM | > 100 µM | 17.4 µM | 45.8 µM | 34.8 µM | > 100 µM | 57.7 µM | > 100 µM | 20 µM | 57.7 µM | 55 µM | > 100 µM | 19.8 µM | 55.8 µM
3 | O=c1[nH]nc(-c2ccccc2)c2c(-c3ccccc3)onc12 | 3.38 µM | > 100 µM | 0.505 µM | 9.89 µM | 1.79 µM | 27.2 µM | 0.291 µM | – | 0.391 µM | > 100 µM | 2.4 µM | > 100 µM | > 62.8 µM | > 100 µM | 0.43 µM | > 100 µM
4 | O=C(NN1C(=O)CSC12CCC(c1ccccc1)CC2)c1[nH]c2ccc(F)cc2c1-c1ccccc1 (configuration not stated) | 17.2 µM | 31.8 µM | 21.2 µM | 68.3 µM | 16.5 µM | 33.6 µM | – | – | 14.8 µM | 30.5 µM | 15.8 µM | 32.5 µM | 18.5 µM | 34.7 µM | 10.8 µM | 23.8 µM
5 | CNC(=O)c1cncc(/C=C/c2c(Cl)cccc2Cl)c1 | > 23.2 µM | > 25 µM | > 25 µM | > 25 µM | > 25 µM | > 25 µM | > 25 µM | > 25 µM | 15.1 µM | > 25 µM | 21.9 µM | > 25 µM | > 25 µM | > 25 µM | > 19.8 µM | > 25 µM
6 | NCCSC(C[N+](=O)[O-])c1ccccc1Cl (configuration not stated) | 9.85 µM | 22.1 µM | 2.14 µM | 4.35 µM | 1.92 µM | 3.62 µM | 3.38 µM | > 23.3 µM | 3.15 µM | 10.9 µM | 12.1 µM | 30.1 µM | 4.66 µM | 10.4 µM | 13.2 µM | 26.3 µM
7 | CCc1c2c(nc3ccc(OCc4ccc(B5OC(C)(C)C(C)(C)O5)cc4)cc13)-c1cc3c(c(=O)n1C2)COC(=O)[C@]3(O)CC | 0.0278 µM | 2.07 µM | 0.126 µM | > 100 µM | 0.0223 µM | > 49.8 µM | 0.0291 µM | – | 0.115 µM | > 100 µM | 0.192 µM | > 100 µM | 0.215 µM | > 100 µM | < 0.01 µM | 0.186 µM
8 | Cc1ccc([N+](=O)[O-])c2c(NCCC[N+](C)(C)[O-])ccnc12 | – | > 100 µM | – | > 100 µM | – | > 100 µM | – | > 100 µM | – | > 100 µM | – | 59.2 µM | – | 84.3 µM | – | –
9 | Clc1ccc(/C=C/c2nc(Cl)c(-c3ccc(Cl)cc3)c(Cl)n2)cc1 | – | > 100 µM | – | > 100 µM | – | > 100 µM | – | > 100 µM | – | > 100 µM | – | > 100 µM | – | > 100 µM | – | > 100 µM
10 | CCc1nc(N)nc(N)c1C#CC(C)c1cc(-c2ccnc(C)c2)c2oc(C)nc2c1 (configuration not stated) | < 0.01 µM | 11 µM | 0.0246 µM | 6.9 µM | < 0.01 µM | 7.9 µM | < 0.01 µM | 2.22 µM | < 0.01 µM | 7.74 µM | 4.54 µM | 26.4 µM | < 0.0103 µM | 13.6 µM | < 0.01 µM | 3.23 µM
11 | Cc1cc(Cl)ccc1Nc1nc(C(F)(F)F)ccc1C(=O)Nc1cccc(C(F)(F)F)c1 | 2.75 µM | 9.01 µM | 2.52 µM | 6.13 µM | 3.17 µM | 15.6 µM | 2.06 µM | 4.67 µM | 3.07 µM | 10.8 µM | 3.07 µM | 11.3 µM | 4.75 µM | 19.3 µM | 4 µM | 14.4 µM
12 | COc1ccc(C=C2C(=O)NC(=O)NC2=O)cc1OCc1ccccc1 | 36.9 µg/mL | – | – | – | – | – | – | – | 31.7 µg/mL | – | 35.6 µg/mL | – | – | – | – | –
13 | Nc1ccccc1C#C/C=C\C#Cc1ccccc1F | 13.5 µM | 40 µM | 10.3 µM | 34.1 µM | 5.49 µM | 28 µM | – | – | 5.06 µM | 47.6 µM | 24.4 µM | > 100 µM | 9.31 µM | 23.9 µM | 7.72 µM | 21 µM
14 | O=C1c2ccn(CCCCN(CCO)CCO)c2C(=O)c2c1c(O)c1ccccc1c2O | 21.6 µM | 57.7 µM | 4.45 µM | > 100 µM | 15.2 µM | 34.8 µM | 3.17 µM | – | 3.39 µM | > 100 µM | 31.7 µM | > 100 µM | 19.1 µM | 45 µM | 1.09 µM | 2.77 µM
15 | COc1ccc2c(c1OC)C(=O)O[C@@H]2[C@H]1c2c(c(Br)c3c(c2OC)OCO3)CCN1C | > 100 µM | > 100 µM | 27.1 µM | > 100 µM | > 100 µM | > 100 µM | 1.82 µM | > 100 µM | 47 µM | > 100 µM | > 100 µM | > 100 µM | > 100 µM | > 100 µM | 4.31 µM | > 100 µM
16 | COc1ccc(OC)c(/C=N/N=C2\C(=O)Nc3c(Cl)cc(Cl)cc32)c1 | – | > 100 µM | – | > 100 µM | – | – | – | > 100 µM | – | > 100 µM | – | > 100 µM | – | > 100 µM | – | > 100 µM
17 | O=C1NC(c2ccccc2)N=C2Oc3ccccc3C=C12 (configuration not stated) | – | > 100 µM | – | – | – | > 100 µM | – | – | – | > 23.6 µM | – | > 100 µM | – | > 100 µM | – | > 100 µM
18 | Cn1c2ccccc2c2[nH]c3ccccc3c(=O)c21 | – | > 100 µM | – | > 100 µM | – | > 100 µM | – | > 100 µM | – | > 100 µM | – | – | – | > 100 µM | – | > 100 µM
19 | NS(=O)(=O)c1ccc(N2N=C(c3cccs3)CC2c2ccccc2O)cc1 (configuration not stated) | 2.9 µM | 13 µM | 0.577 µM | 1.88 µM | 0.903 µM | 2.33 µM | – | – | 0.897 µM | 2.39 µM | 2.88 µM | > 33.3 µM | 1.25 µM | 6.11 µM | 1.15 µM | 5.09 µM
